Test results as given in ChEMBL document CHEMBL1649174, “Human immunodeficiency virus type 1 isolates with the reverse transcriptase (RT) mutation Q145M retain nucleoside and nonnucleoside RT inhibitor susceptibility” (2009).

Columns and labels:
Type in all cases: functional
[1] = test system: Human immunodeficiency virus 1; test: Antiviral activity against Human immunodeficiency virus 1 clone Q9016 harboring K122E, Q145M, I202V, F214L mutation in reverse transcriptase by phenosense assay relative to wild type
[2] = test system: Human immunodeficiency virus 1; test: Antiviral activity against Human immunodeficiency virus 1 clone 38086 harboring K49R, V60I, I135V, Q145M, Q174H, G196E, Q207E, R211K, V245K mutation in reverse transcriptase by phenosense assay relative to wild type
[3] = test system: Human immunodeficiency virus 1; test: Antiviral activity against Human immunodeficiency virus 1 clone 14682 harboring 122E, 135V, Q145V, 200A mutation in reverse transcriptase by phenosense assay relative to wild type
[4] = test system: Human immunodeficiency virus 1; test: Antiviral activity against Human immunodeficiency virus 1 clone pNL4-3-Q145M harboring K102Q, Q145M, S162C, K277R, I293V mutation in reverse transcriptase by phenosense assay relative to wild type

Compound | fold change (FC) [1] | fold change (FC) [2] | fold change (FC) [3] | fold change (FC) [4]
Nc1nc(NC2CC2)c2ncn([C@H]3C=C[C@@H](CO)C3)c2n1 [ABACAVIR] | 1.2 | 0.9 | 1.1 | 1.1
CC(C)Nc1cccnc1N1CCN(C(=O)c2cc3cc(NS(C)(=O)=O)ccc3[nH]2)CC1 [DELAVIRDINE] | 0.7 | 0.4 | 0.9 | 0.6
O=c1[nH]cnc2c1ncn2[C@H]1CC[C@@H](CO)O1 [DIDANOSINE] | 0.9 | 1.5 | 1 | 1.1
O=C1Nc2ccc(Cl)cc2[C@@](C#CC2CC2)(C(F)(F)F)O1 [EFAVIRENZ] | 1.2 | 1 | 1.3 | 0.9
Nc1nc(=O)n([C@@H]2CS[C@H](CO)O2)cc1F [EMTRICITABINE] | 1.1 | 1.2 | 0.5 | 0.9
Cc1ccnc2c1NC(=O)c1cccnc1N2C1CC1 [NEVIRAPINE] | 0.7 | 1.1 | 0.5 | 1.3
Cc1cn([C@H]2C=C[C@@H](CO)O2)c(=O)[nH]c1=O [STAVUDINE] | 1.1 | 1.1 | 0.9 | 0.9
C[C@H](Cn1cnc2c(N)ncnc21)OCP(=O)(O)O [TENOFOVIR ANHYDROUS] | 1.5 | 0.9 | 0.9 | 0.9
Cc1cn([C@H]2C[C@H](N=[N+]=[N-])[C@@H](CO)O2)c(=O)[nH]c1=O [ZIDOVUDINE] | 1.1 | 0.9 | 0.8 | 0.7
